According to US4657897A, “N^6 -substituted adenosines for treating pain” (Warner-Lambert Company, priority 1985, dated 1987):

Tests used:
[1] = target: T1, adenosine A2 receptor (Rattus norvegicus, UniProt P30543); assay: Adenosine Receptor Binding--A2 Receptor Affinity (RBA2), [3H]NECA binding, rat striatal membranes; set-up: species or system rat (mixed sex Sprague-Dawley; male Long-Evans); details: 4 nM [3H]NECA, 50 nM N6-cyclopentyladenosine, 25° C., 60 min
T1 construct: 5 mg original tissue weight of rat weight of rat striatal membranes; tissue Pel-Freez (Rogers, Ark.) for the brains; host or cells: rat striatum (Sprague-Dawley; Long-Evans gave essentially identical results), membranes
Procedure: Adenosine Receptor Binding--A2 Receptor Affinity (RBA2)
Brains from 200-500 g mixed sex Sprague-Dawley rats were purchased from Pel-Freez (Rogers, Ark.). […] Brains were thawed and then kept on ice while the striata were dissected out. Striata were disrupted in 10 vol of ice-cold 50 mM Tris.HCl (pH 7.7 at 25° C., pH 8.26 at 5° C.) (Tris) for 30 seconds in a Polytron PT-10 (Brinkmann) at setting 5. The suspension was centrifuged at 50,000 xg for ten minutes, the supernatant discarded, the pellet resuspended in 10 vol ice-cold Tris as above, recentrifuged, resuspended at 1 g/5 ml, and stored in plastic vials at -70° C. […] When needed, tissue was thawed at room temperature, disrupted in a Polytron, and kept on ice until used.
Test compounds were dissolved at 10 mM in dimethylsulfoxide on the same day as the experiment, and diluted in dimethylsulfoxide to 100× the final incubation concentration. […] [^3 H]NECA was diluted to 40 nM in Tris. […] After all additions, the rack of tubes was vortexed, and the tubes were then incubated for 60 min at 25° C. in a shaking water bath. The rack of tubes was vortexed an additional time halfway through the incubation.
Incubations were terminated by filtration through 2.4 cm GF/B filters under reduced pressure. Each tube was filtered as follows: the contents of the tube were poured onto the filter, 4 ml of ice-cold Tris were added to the tube and the contents poured onto the filter, and the filter was washed twice with 4 ml of ice-cold Tris. The filtration was complete in about twelve seconds. Filters were put in scintillation vials, 8 ml of Formula 947 scintillation fluid added, and the vials left overnight, shaken, and counted in a liquid scintillation counter at 40% efficiency.
The IC50 was calculated by weighted nonlinear least squares curve-fitting to the mass-action equation. [formula] where Y is cpm bound
T is cpm total binding without drug
S is cpm specific binding without drug
D is the concentration of drug
K is the IC50 of the drug
Weighting factors were calculated under the assumption that the standard deviation was proportional to the predicted value of Y. Nonspecific binding was treated as a very large (infinite) concentration of drug in the computer analysis.

[2] = Mouse Activity and Screen Test (MAST), screen test failure (ST); assay type: in vivo, mouse (Swiss-Webster, male); details: Mus musculus, ip; lowest dose at which an A rating is achieved; screen test; intraperitoneal, 1 h prior to testing; read-out: MAST ST LAD
Procedure: Treatments are administered intraperitoneally one hour prior to testing. […] Compounds are dissolved or suspended in 0.2% Methocel. Control animals are injected with Methocel.
The compounds are identified in the Examples.

[3] = target: T2, adenosine A1 receptor (Rattus norvegicus, UniProt P25099); assay: Adenosine Receptor Binding--A1 Receptor Affinity (RBA1), [3H]-CHA binding, rat whole brain membranes; set-up: species or system rat (male Long Evans); details: 1.0 nM [3H]-CHA, 25° C., 1 h
T2 construct: Whole brain minus cerebellum and brainstem from male Long Evans rats; from tissue; host or cells: rat whole brain minus cerebellum and brainstem (male Long Evans), membranes
T2 sequence (P25099 1-326): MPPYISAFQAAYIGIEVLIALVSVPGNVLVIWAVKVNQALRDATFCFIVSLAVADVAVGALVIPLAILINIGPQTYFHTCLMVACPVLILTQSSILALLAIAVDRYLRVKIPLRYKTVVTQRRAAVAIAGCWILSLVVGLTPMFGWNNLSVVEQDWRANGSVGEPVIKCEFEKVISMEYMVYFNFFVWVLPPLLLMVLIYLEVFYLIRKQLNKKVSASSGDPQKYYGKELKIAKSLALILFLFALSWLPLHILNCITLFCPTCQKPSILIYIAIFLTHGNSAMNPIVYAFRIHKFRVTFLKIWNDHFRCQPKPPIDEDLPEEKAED
Procedure: Adenosine Receptor Binding--A1 Receptor Affinity (RBA1)
Whole brain minus cerebellum and brainstem from male Long Evans rats (150-200 g) was homogenized in 30 volumes of ice-cold 0.05M Tris-HCl buffer pH 7.7 using a Brinkman Polytron PT-10, (setting number 6 for 20 seconds) and centrifuged for ten minutes at 20,000×g (Sorvall RC-2), 4° C. The supernatant was discarded, and the pellet was resuspended and centrifuged as before. The pellet was resuspended in 20 ml Tris-HCl buffer containing two International Units/ml of adenosine deaminase (Sigma type III from calf intestinal mucosa), incubated at 37° C. for 30 minutes, then subsequently at 0° C. for ten minutes. The homogenate was again centrifuged, and the final pellet was resuspended in ice-cold 0.05M Tris-HCl buffer pH 7.7 to a concentration of 20 mg/ml original wet tissue weight and used immediately.
Tissue homogenate (10 mg/ml) was incubated in 0.05M Tris-HCl buffer pH 7.7 containing 1.0 nM [^3 H]-N^6 -cyclohexyladenosine[^3 H]-CHA) with or without test agents in triplicate for one hour at 25° C. Incubation volume was 2 ml. Unbound [^3 H]-CHA was separated by rapid filtration under reduced pressure through Whatman glass fiber (GF/B) filters. The filters were rinsed three times with 5 ml of ice cold 0.05M Tris-HCl buffer pH 7.7. The radio-labeled ligand retained on the filter was measured by liquid scintillation spectrophotometry after shaking the filters for one hour or longer on a mechanical shaker in 10 ml of Beckman Ready-Solv HP scintillation cocktail.
Nonspecific binding was defined as the binding which occurred in the presence of 1 mM theophylline. The concentration of test agent which inhibited 50% of the specific binding (IC50) was determined by nonlinear computer curve fit. The Scatchard plot was calculated by linear regression of the line obtained by plotting the amount of radioligand bound (pmoles/gram of tissue) [formula] Since the amount of radioligand bound was a small fraction of the total amount added, free radioligand was defined as the concentration (nM) of radioligand added to the incubation mixture. The Hill coefficient was calculated by linear regression of the line obtained by plotting the log of the bound radioligand vs the log of the [formula] The maximal number of binding sites (Bmax) was calculated from the Scatchard plot.

T1 sequence (P30543 whole entry): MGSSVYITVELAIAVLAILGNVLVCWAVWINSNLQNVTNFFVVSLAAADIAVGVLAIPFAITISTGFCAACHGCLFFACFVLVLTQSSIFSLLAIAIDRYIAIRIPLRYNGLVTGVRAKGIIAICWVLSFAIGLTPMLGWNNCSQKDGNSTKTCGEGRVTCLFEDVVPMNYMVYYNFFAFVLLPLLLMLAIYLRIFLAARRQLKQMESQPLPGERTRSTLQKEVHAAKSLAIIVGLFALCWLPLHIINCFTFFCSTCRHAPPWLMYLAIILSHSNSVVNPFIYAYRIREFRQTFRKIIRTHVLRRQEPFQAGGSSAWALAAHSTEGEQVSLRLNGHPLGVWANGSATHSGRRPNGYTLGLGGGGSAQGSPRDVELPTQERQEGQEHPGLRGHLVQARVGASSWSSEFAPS

| SMILES | IC50 [1] [nM] | IC50 [3] [nM] | minimal effective dose [2] [mg/kg] |
| --- | --- | --- | --- |
| COC(=O)C(CNc1ncnc2c1ncn2[C@@H]1O[C@H](CO)[C@@H](O)[C@H]1O)(c1ccccc1)c1ccccc1 [Example 24, N^6-(2-Carbomethoxy-2,2-diphenylethyl)adenosine] | 4600 | 79 | > 30 |
| O=C(OC[C@H]1O[C@@H](n2cnc3c(NCC(c4ccccc4)c4ccccc4)ncnc32)[C@H](OC(=O)c2ccccc2)[C@@H]1OC(=O)c1ccccc1)c1ccccc1 [Example 26, 2',3',5'-Tri-O-benzoyl-N^6-(2,2-diphenylethyl)adenosine] | 3840 | 1230 | > 100 |
| CC(=O)OC[C@H]1O[C@@H](n2cnc3c(NCC(c4ccccc4)c4ccccc4)nc(Cl)nc32)[C@H](OC(C)=O)[C@@H]1OC(C)=O [Example 27, 2',3',5'-Tri-O-acetyl-N^6-(2,2-diphenylethyl)-2-chloroadenosine] | 6820 | 30900 | > 100 |

The next compounds have a lower IC50 [1] than those just listed; values first:

| IC50 [1] [nM] | IC50 [3] [nM] | SMILES | minimal effective dose [2] [mg/kg] |
| --- | --- | --- | --- |
| 919 | 242 | CC1(C)O[C@@H]2[C@H](O1)[C@@H](CO)O[C@H]2n1cnc2c(NCC(c3ccccc3)c3ccccc3)ncnc21 [Example 29, 2',3'-O-Isopropylidene-N^6-(2,2-diphenylethyl)adenosine] | > 100 |
| 293 | 69 | Nc1nc(NCC(O)(c2ccccc2)c2ccccc2)c2ncn([C@@H]3O[C@H](CO)[C@@H](O)[C@H]3O)c2n1 [Example 23, N^6-(2,2-Diphenyl-2-hydroxyethyl)-2-aminoadenosine] | > 100 |
| 166 | 53 | CC(=O)OC[C@H]1O[C@@H](n2cnc3c(NCC(c4ccccc4)c4ccccc4)ncnc32)[C@H](OC(C)=O)[C@@H]1OC(C)=O [Example 25, 2',3',5'-Tri-O-acetyl-N^6-(2,2-diphenylethyl)adenosine] | > 100 |
